What follows are compounds tested on P. falciparum 3D7 growth, pLDH absorbance (assay: P. falciparum 3D7 growth inhibition, dose response, strain 3D7 (AID 2305)).

Compound	IC50 [µM]
Cc1cc(NC2CCCC2)nc(Nc2ccccc2C)n1	1.35
Nc1ncc(-c2ccc3ncccc3c2)c(N)n1	0.92
CN1CCN(CC(=O)Nc2cccc(-c3cccc(-c4nc5ccc(C(F)(F)F)cc5[nH]4)c3)c2)CC1	0.37
Cc1cc(=O)c(-c2ccc(Sc3ccc(Cl)cc3)cc2)c(C)[nH]1	0.97
Cn1nc(-c2ccc(NC(=O)Nc3cc(C(F)(F)F)ccc3F)cc2)c2cnc(NCCc3cnc[nH]3)nc21	0.81
CC(C)CCN1CCCN(Cc2cccc(NC(=O)c3ccc(Cl)c(Cl)c3)c2)CC1	1.02
O=C(c1ccc(F)cc1)N1CCOC(CCN2CCC(c3ccccc3)CC2)(c2ccc(Cl)c(Cl)c2)C1 (stereo unspecified)	0.75
NC1CCN(c2nc(NCCc3ccc(O)cc3)nc(NCc3ccccc3-c3ccc(C(F)(F)F)cc3)n2)CC1	0.75
CC(Oc1ccc(Cl)cc1)C(=O)Nc1cc(C(F)(F)F)ccc1N1CCOCC1 (stereo unspecified)	0.53
COc1ccc(CCCc2nc(N)nc(N)c2-c2ccc(Cl)cc2)cc1	0.04
NCC(=O)NC12CC3CC(CC(C3)C1)C2	1.2
CCOc1cc(C(=O)NCCN2CCCCC2)ccc1-c1nc2ccc(Cl)cc2[nH]1	1.08
CCCOc1ccc(C(F)(F)F)cc1NC(=O)c1nc2nc(C)cc(C)n2n1	0.25
COCCNC(=O)c1ccc(OC2CCN(CC(C)=Cc3ccccc3)CC2)c(Cl)c1	0.65
CCC[C@@H](/C=N/N(C)C(=O)OC(C)(C)C)NC(=O)[C@H](CC(C)C)NC(=O)c1cc2cccc(OC)c2o1	1.08
NC(=O)c1ccccc1OCC(=O)Nc1cccc(-c2cccc(-c3nc4ccccc4[nH]3)c2)c1	0.38
COC(=O)c1ccc(CC(C)NCC(O)c2cccc(Br)c2)cc1 (stereo unspecified)	0.69
CCCCc1ccc2[nH]cc(C(=O)OCC)c(=O)c2c1	0.63
Cc1cc(N[C@@H](Cc2ccccc2)C(=O)NCc2cccs2)nc(Nc2ccccc2)n1	1.24
CC1CCC2(CC1)N=C(N)N=C(N)N2OCCCCCCCCO (stereo unspecified)	0.15
CC(C)CN1CCCN(Cc2cccc(NC(=O)c3ccc(Cl)c(Cl)c3)c2)CC1	0.89

Compound	IC50 [µM]
CN1CCC(N2CCN(Cc3ccc(-c4ccc(-c5nc6ccc(F)cc6[nH]5)s4)cc3)CC2)CC1	0.15
CN1CCC(C(=O)N(Cc2ccc(-c3ccc(CNCCc4ccccc4)cn3)cc2)C2Cc3ccccc3C2)CC1	1.06
Cn1ccc2c3c(N)nc(N)nc3ccc21	0.9
CN(CCCNc1ccc(C(=O)Nc2ccc(C(F)(F)F)cc2)cc1[N+](=O)[O-])Cc1ccccc1	0.23
Cc1ccc(NC(=O)c2ccc(CN3CCCN(CC4CCCCC4)CC3)cc2)cc1	0.8
O=C(NCC1CCCCC1)c1cc(=O)c2ccccc2o1	0.32
CCOC(=O)c1c[nH]c2c(ccc3ccccc32)c1=O	0.16
CC1=C(C(=O)OC(C)C)C(c2ccccc2Cl)C2=C(CC(c3ccccc3)CC2=O)N1 (stereo unspecified)	0.85
CCCCCCc1c(C)[nH]c2cc(OC)ccc2c1=O	0.12
CCNc1cc(C(=O)N[C@@H](Cc2ccccc2)[C@H](O)CNC(C)(C)CSCC(C)C)cc(N2CCCC2=O)c1	0.26
COc1ccc2c(NN=Cc3ccccc3Cl)ccnc2c1	0.62
O=C(NCCCCN1CCC(c2cccc3ccccc23)CC1)c1ccc(-c2ccc(C(F)(F)F)cn2)cc1	0.87
CCC1(CC)N=C(N)N=C(N)C1c1ccc(Cl)c(Cl)c1 (stereo unspecified)	0.38
COc1ccc(-c2ccc(NC(=O)c3ccc(Cl)cc3)cc2)cc1CN1CCC(O)CC1	1.09
CC(C)(C)c1ccc(NC(=O)N[C@@H]2CCN(c3ccnc4ccccc34)C2)cc1	0.35
COc1ccc(-c2cccc(NC(=O)c3ccc(Cl)cc3)c2)cc1CN1CCCN(C)CC1	0.39
Cc1ccc(-n2cc(CNCCc3ncc(C)[nH]3)c(-c3ccc(F)cc3)n2)cc1	1.51
CN1CCN(CCCN(Cc2cccc(-c3cccc(CNC4CCCC4)c3)c2)C(=O)CCC2CCCC2)CC1	0.68
O=C(/C=C/c1ccc(Cl)cc1)NCCCCCN1CCCC(C(=O)Nc2ccc(F)c(Cl)c2)C1 (stereo unspecified)	1.12
Cn1cc(C(=O)Nc2cccc(-c3cccc(-c4nc5ccccc5[nH]4)c3)c2)n(C)c1=O	0.71
